Results taken from the NIST ThermoML archive (doi:10.1021/acs.jced.6b00542).
Numbers after ± are expanded uncertainties.

Experiments:
[1] = for speed of sound: 100 kPa, Frequency=3 MHz, Sing-around technique in a fixed-path interferometer; for speed of sound / viscosity / mass density: Liquid; for viscosity / mass density: 102 kPa; for viscosity: Concentric cylinders viscometry; for mass density: Vibrating tube method; for surface tension liquid-gas: Pendant drop shape
[2] = xn = mol fraction of the nth substance listed; conditions: Liquid; for speed of sound: 100 kPa, Frequency=3 MHz, Sing-around technique in a fixed-path interferometer; for viscosity / mass density: 102 kPa; for viscosity: Concentric cylinders viscometry; for mass density: Vibrating tube method

CCCCc1ccccc1 [butylbenzene]
[1]
Conditions | mass density [kg/m3] | speed of sound [m/s] | surface tension liquid-gas [mN/m] | viscosity [mPa·s]
293.15 K | 860.51 ± 0.11 | 1353.7 ± 0.9 | – | 1.05 ± 0.01
294.2 K | – | – | 29.1 ± 0.3 | –
303.15 K | 852.49 ± 0.11 | 1314.9 ± 0.9 | – | 0.91 ± 0.007
313.15 K | 844.43 ± 0.11 | 1276.6 ± 0.9 | – | 0.801 ± 0.006
323.15 K | 836.34 ± 0.11 | 1238.7 ± 0.8 | – | 0.713 ± 0.006
333.15 K | 828.21 ± 0.12 | 1201.4 ± 0.8 | – | 0.636 ± 0.006
343.15 K | 819.9 ± 0.2 | – | – | 0.571 ± 0.006
353.15 K | 811.7 ± 0.2 | – | – | 0.516 ± 0.006
363.15 K | 803.4 ± 0.2 | – | – | 0.469 ± 0.005
373.15 K | 795 ± 0.2 | – | – | 0.43 ± 0.005

CCCCc1ccccc1 [butylbenzene] + CCCCCCCCCCCCCCCCC
[2], x1 = 1
Conditions | mass density [kg/m3] | speed of sound [m/s] | viscosity [mPa·s]
303.15 K | 852.49 ± 0.11 | 1314.9 ± 0.9 | 0.91 ± 0.007
313.15 K | 844.43 ± 0.11 | 1276.6 ± 0.9 | 0.801 ± 0.006
323.15 K | 836.34 ± 0.11 | 1238.7 ± 0.8 | 0.713 ± 0.006
333.15 K | 828.21 ± 0.12 | 1201.4 ± 0.8 | 0.636 ± 0.006
343.15 K | 819.9 ± 0.22 | – | 0.571 ± 0.006
353.15 K | 811.7 ± 0.2 | – | 0.516 ± 0.006
363.15 K | 803.4 ± 0.2 | – | 0.469 ± 0.005
373.15 K | 795 ± 0.2 | – | 0.43 ± 0.005

CCCCCCCCCC [decane]
[1]
Conditions | mass density [kg/m3] | speed of sound [m/s] | surface tension liquid-gas [mN/m] | viscosity [mPa·s]
293.15 K | 729.88 ± 0.17 | 1253.8 ± 1.4 | – | 0.922 ± 0.007
294.6 K | – | – | 23.8 ± 0.3 | –
303.15 K | 722.31 ± 0.18 | 1214.5 ± 1.3 | – | 0.794 ± 0.007
313.15 K | 714.69 ± 0.18 | 1175.7 ± 1.2 | – | 0.693 ± 0.006
323.15 K | 707.02 ± 0.18 | 1137.3 ± 1.2 | – | 0.615 ± 0.006
333.15 K | 699.29 ± 0.18 | 1099.3 ± 1.1 | – | 0.545 ± 0.006
343.15 K | 691.5 ± 0.3 | – | – | 0.486 ± 0.006
353.15 K | 683.6 ± 0.3 | – | – | 0.436 ± 0.005
363.15 K | 675.6 ± 0.3 | – | – | 0.396 ± 0.005
373.15 K | 667.5 ± 0.3 | – | – | 0.362 ± 0.005

CCCCCCCCCC [decane] + CCCCc1ccccc1
[2], x2 = 0
Conditions | mass density [kg/m3] | speed of sound [m/s] | viscosity [mPa·s]
293.15 K | 729.88 ± 0.17 | 1253.8 ± 1.4 | 0.922 ± 0.007
303.15 K | 722.31 ± 0.18 | 1214.5 ± 1.3 | 0.794 ± 0.007
313.15 K | 714.69 ± 0.18 | 1175.7 ± 1.2 | 0.693 ± 0.006
323.15 K | 707.02 ± 0.18 | 1137.3 ± 1.2 | 0.615 ± 0.006
333.15 K | 699.29 ± 0.18 | 1099.3 ± 1.1 | 0.545 ± 0.006
343.15 K | 691.5 ± 0.3 | – | 0.486 ± 0.006
353.15 K | 683.6 ± 0.3 | – | 0.436 ± 0.005
363.15 K | 675.6 ± 0.3 | – | 0.396 ± 0.005
373.15 K | 667.5 ± 0.3 | – | 0.362 ± 0.005

CCCCCCCCCCCC [dodecane]
[1]
Conditions | mass density [kg/m3] | speed of sound [m/s] | surface tension liquid-gas [mN/m] | viscosity [mPa·s]
293.15 K | 748.79 ± 0.16 | 1297.9 ± 1 | – | 1.47 ± 0.01
294.1 K | – | – | 25.1 ± 0.3 | –
303.15 K | 741.54 ± 0.16 | 1259.6 ± 1 | – | 1.24 ± 0.01
313.15 K | 734.25 ± 0.16 | 1221.9 ± 1 | – | 1.06 ± 0.01
323.15 K | 726.94 ± 0.17 | 1184.7 ± 1 | – | 0.916 ± 0.007
333.15 K | 719.59 ± 0.17 | 1148 ± 1 | – | 0.801 ± 0.007
343.15 K | 712.2 ± 0.3 | – | – | 0.706 ± 0.006
353.15 K | 704.7 ± 0.3 | – | – | 0.627 ± 0.006
363.15 K | 697.2 ± 0.3 | – | – | 0.562 ± 0.006
373.15 K | 689.6 ± 0.3 | – | – | 0.506 ± 0.006

CCCCCCCCCCCC [dodecane] + CCCCc1ccccc1
[2], x2 = 0
Conditions | mass density [kg/m3] | speed of sound [m/s] | viscosity [mPa·s]
293.15 K | 748.79 ± 0.16 | 1297.9 ± 1 | 1.47 ± 0.01
303.15 K | 741.54 ± 0.16 | 1259.6 ± 1 | 1.24 ± 0.01
313.15 K | 734.25 ± 0.16 | 1221.9 ± 1 | 1.06 ± 0.01
323.15 K | 726.94 ± 0.17 | 1184.7 ± 1 | 0.916 ± 0.007
333.15 K | 719.59 ± 0.17 | 1148 ± 1 | 0.801 ± 0.007
343.15 K | 712.2 ± 0.3 | – | 0.706 ± 0.006
353.15 K | 704.7 ± 0.3 | – | 0.627 ± 0.006
363.15 K | 697.2 ± 0.3 | – | 0.562 ± 0.006
373.15 K | 689.6 ± 0.3 | – | 0.506 ± 0.006

CCCCCCCCCCCCCCCCC [heptadecane]
[1]
Conditions | mass density [kg/m3] | speed of sound [m/s] | viscosity [mPa·s]
303.15 K | 771.02 ± 0.13 | 1330.9 ± 1.2 | 3.25 ± 0.02
313.15 K | 764.16 ± 0.13 | 1294.5 ± 1.1 | 2.61 ± 0.01
323.15 K | 757.3 ± 0.14 | 1258.8 ± 0.9 | 2.14 ± 0.01
333.15 K | 750.45 ± 0.14 | 1223.8 ± 0.8 | 1.79 ± 0.01
343.15 K | 743.7 ± 0.23 | – | 1.52 ± 0.01
353.15 K | 736.8 ± 0.2 | – | 1.3 ± 0.01
363.15 K | 729.8 ± 0.2 | – | 1.14 ± 0.01
373.15 K | 723 ± 0.2 | – | 1 ± 0.01

CCCCCCCCCCCCCCCC [hexadecane]
[1]
Conditions | mass density [kg/m3] | speed of sound [m/s] | surface tension liquid-gas [mN/m] | viscosity [mPa·s]
293.15 K | 773.52 ± 0.16 | 1357.3 ± 1.1 | – | 3.45 ± 0.02
294.8 K | – | – | 27.4 ± 0.3 | –
303.15 K | 766.58 ± 0.17 | 1320 ± 1 | – | 2.74 ± 0.02
313.15 K | 759.66 ± 0.17 | 1283.4 ± 1 | – | 2.22 ± 0.01
323.15 K | 752.74 ± 0.17 | 1247.5 ± 1 | – | 1.84 ± 0.01
333.15 K | 745.82 ± 0.17 | 1212.1 ± 1 | – | 1.55 ± 0.01
343.15 K | 738.8 ± 0.3 | – | – | 1.32 ± 0.01
353.15 K | 731.9 ± 0.3 | – | – | 1.14 ± 0.01
363.15 K | 724.9 ± 0.3 | – | – | 1 ± 0.01
373.15 K | 717.8 ± 0.3 | – | – | 0.887 ± 0.007

CCCCCCCCCCCCCCCC [hexadecane] + CCCCc1ccccc1
[2], x2 = 0
Conditions | mass density [kg/m3] | speed of sound [m/s] | viscosity [mPa·s]
293.15 K | 773.52 ± 0.16 | 1357.3 ± 1.1 | 3.45 ± 0.02
303.15 K | 766.58 ± 0.17 | 1320 ± 1 | 2.74 ± 0.02
313.15 K | 759.66 ± 0.17 | 1283.4 ± 1 | 2.22 ± 0.01
323.15 K | 752.74 ± 0.17 | 1247.5 ± 1 | 1.84 ± 0.01
333.15 K | 745.82 ± 0.17 | 1212.1 ± 1 | 1.55 ± 0.01
343.15 K | 738.8 ± 0.3 | – | 1.32 ± 0.01
353.15 K | 731.9 ± 0.3 | – | 1.14 ± 0.01
363.15 K | 724.9 ± 0.3 | – | 1 ± 0.01
373.15 K | 717.8 ± 0.3 | – | 0.887 ± 0.007

CCCCCCCCCCCCCC [tetradecane]
[1]
Conditions | mass density [kg/m3] | speed of sound [m/s] | surface tension liquid-gas [mN/m] | viscosity [mPa·s]
293.15 K | 762.71 ± 0.14 | 1331.2 ± 0.9 | – | 2.3 ± 0.01
294.6 K | – | – | 26.2 ± 0.3 | –
303.15 K | 755.65 ± 0.14 | 1293.6 ± 0.9 | – | 1.88 ± 0.01
313.15 K | 748.58 ± 0.15 | 1256.4 ± 0.9 | – | 1.56 ± 0.01
323.15 K | 741.5 ± 0.15 | 1220.1 ± 0.9 | – | 1.32 ± 0.01
333.15 K | 734.4 ± 0.15 | 1184.1 ± 0.9 | – | 1.13 ± 0.008
343.15 K | 727.5 ± 0.2 | – | – | 0.98 ± 0.007
353.15 K | 720.3 ± 0.2 | – | – | 0.858 ± 0.007
363.15 K | 713.1 ± 0.3 | – | – | 0.76 ± 0.006
373.15 K | 705.8 ± 0.3 | – | – | 0.679 ± 0.006

CCCCCCCCCCCCCC [tetradecane] + CCCCc1ccccc1
[2], x2 = 0
Conditions | mass density [kg/m3] | speed of sound [m/s] | viscosity [mPa·s]
293.15 K | 762.71 ± 0.14 | 1331.2 ± 0.9 | 2.3 ± 0.01
303.15 K | 755.65 ± 0.14 | 1293.6 ± 0.9 | 1.88 ± 0.01
313.15 K | 748.58 ± 0.15 | 1256.4 ± 0.9 | 1.56 ± 0.01
323.15 K | 741.5 ± 0.15 | 1220.1 ± 0.9 | 1.32 ± 0.01
333.15 K | 734.4 ± 0.15 | 1184.1 ± 0.9 | 1.13 ± 0.008
343.15 K | 727.5 ± 0.2 | – | 0.98 ± 0.007
353.15 K | 720.3 ± 0.2 | – | 0.858 ± 0.007
363.15 K | 713.1 ± 0.3 | – | 0.76 ± 0.006
373.15 K | 705.8 ± 0.3 | – | 0.679 ± 0.006
